Experiments:
[1] = Maximum tolerated dose (MTD) study; format: in vivo
From the text: After 3 treatment cycles, animals rested (no treatment) for one more week before euthanasia. Body weight and physical status of all mice were closely monitored. Tissues were collected and fixed in alcoholic formalin to test for toxicity.

[2] = tested on: H1048, CM, MIA PaCa-2, PANC-1 and Luc-PANC-1 cancer cell lines; assay: Viability assay screen in a panel of cancer cell lines; format: cell-based; settings: 10 uM, 72 hours (FIG. 8)
Procedure: Viability assay performed in a panel of cancer cell lines including H1048 (small cell lung cancer), CM (pancreatic neuroendocrine tumor), MIA PaCa-2 and PANC-1 (pancreatic ductal adenocarcinoma), Luc-PANC-1 (pancreatic ductal adenocarcinoma cells expressing firefly luciferase). Initial viability assay screens were performed with single drug concentration (10 μM) or DMSO control (0.25%). […] The threshold of 10 μM was selected since compounds showing under 50% viability at 10 μM would indicate greater cytotoxicity than disclosed TS inhibitor 5-FU and present a promising lead candidate for further study.
To identify potential TS small molecule inhibitors, molecular docking was used to computationally screen compounds with the ability to bind TS. The details of the procedure are presented in the Methods section. The top ranked 26 compounds were acquired and designated 1-A through 26-Z, then used to determine the cytotoxicity at a 10 uM concentration in several cancer cell lines. […] This initial computational screen provided a predictive model that allowed a preliminary assessment for possible drug candidates. Subsequent experiments were pursued to validate biological activity and to define mechanisms for TS inhibition.

[3] = tested on: Luc-CM disseminated tumors; assay: Luc-CM disseminated xenograft tumor model; format: in vivo, NSG mice
Procedure: Luc-PANC-1 (5×106) and Luc-CM (0.5×106) cells were resuspended in 200 ul of PBS and injected subcutaneously (SQ) or intraperitonially (IP) to 6-8-week-old NSG mice respectively. Tumor bearing mice were imaged using Xenogen IVIS® Lumina Bioluminescence Imaging System (Perkin Elmer) every week after cell injection. At 4 weeks, animals were randomized based on slope of luciferase signal and treatment was initiated. […] For all animals body weight was recorded weekly and Luc-PANC-1 tumor volume was measured weekly with a caliper. For scheduled sacrifice experiments, animals were euthanized after 4 weeks of treatment. […] Harvested tumors were excised and weighted, and fixed in alcoholic formalin (67.5% Ethanol, 10% Formaldehyde 37%, 22.5% water) for pathology analysis. Tumor volume was calculated as [volume=0.52 (length×width2)].
From this stock, the exact volume needed for daily in vivo delivery was then formulated into 95% corn oil (Mazola) at 2 different concentrations: 1.25 mg/mi (formulation 1) and 3.125 mg/ml (formulation 2). To determine the volume of solution administered to the mice, 200 μl (maximum volume to be delivered in mice via IP or oral gavage) was divided by 25 g of mouse body weight. Therefore, 8 μl of formulation 1 or 2 multiplied by the weight of the mice were used to reach a dose of 10 or 25 mg/kg of body weight, respectively.
Prior to bioluminescence imaging the region where tumors were located was shaved. Mice were then anesthetized with 2.5% isoflurane in 02 then administered the D-luciferin substrate (150 mg/kg in PBS) by IP injection. Following the injection of the D-luciferin substrate mice were imaged using the Xenogen IVIS® Lumina Bioluminescence Imaging System (Perkin Elmer). The peak of luciferase photon flux was recorded 6 minutes after injection of the D-luciferin substrate. The total photon flux was analyzed and restricted to tumor ROI (region of interest) using Living Image v2.60.1 software (Imaging Systems).

human TS = molecular target: T1, human TS (Homo sapiens, UniProt P04818); assay: Competitive drug displacement assay (tritium TS assay); format: biochemical; settings: TS pre-incubated with drug
T1 construct: 6xHis (N); made in house; host or cells: E. coli BL21 (DE3)
T1 sequence (P04818 whole entry): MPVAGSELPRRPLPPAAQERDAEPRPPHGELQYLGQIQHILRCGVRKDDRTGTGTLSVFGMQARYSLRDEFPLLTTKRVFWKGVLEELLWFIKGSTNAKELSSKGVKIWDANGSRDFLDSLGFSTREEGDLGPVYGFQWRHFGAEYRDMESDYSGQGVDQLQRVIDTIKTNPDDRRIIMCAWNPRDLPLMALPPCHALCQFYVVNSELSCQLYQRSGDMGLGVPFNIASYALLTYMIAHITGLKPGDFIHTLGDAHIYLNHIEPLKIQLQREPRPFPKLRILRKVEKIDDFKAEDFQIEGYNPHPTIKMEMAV
Procedure: For these experiments the TS protein was first incubated with each drug, the reaction was then initiated by addition of 5,10-mTHF and dUMP using different concentrations of either 5,10-mTHF or dUMP to change the substrate:drug ratio. If there was competition between one of the substrates and the drug for the same binding site, increasing the substrate concentration will displace more of the pre-bound drug and shift the equilibrium towards the enzyme: substrate complex, thus allowing the conversion of dUMP to proceed (FIG. 5A).
The competitive drug displacement assay utilized the standard reaction conditions for the tritium based TS catalytic activity assay including 40 μM dUMP (Sigma Aldrich, D3876) with the [5-3H]dUMP tracer (ViTrax, VT122) accounting for 0.06% of the final dUMP concentration and 100 μM 5,10-methylene tetrahydrofolate (defined as 1× dUMP and 1×5,10-mTHF). Concentrations of total dUMP and 5,10-mTHF were then changed relative to these 1× concentrations to concisely indicate the changes in either the substrate or cofactor concentration. […] The remaining components in each 200 μL reaction were consistent in all reactions and included 2 μg of purified human TS in 50 mM KH2PO4 (Sigma Aldrich, P0662) and 100 mM β-mercaptoethanol (Sigma Aldrich, M7522).

BON cells = assay: Cell viability (MTS) assay, BON; format: cell-based; settings: 72 hour drug incubation (FIG. 1C)
CM cells = assay: Cell viability (MTS) assay, CM; format: cell-based; settings: 72 hour drug incubation (FIG. 1C)
MIA PaCa-2 cells = assay: Cell viability (MTS) assay, MIA PaCa-2; format: cell-based; settings: Homo sapiens, MIA PaCa-2, 72 h
Procedure: To prepare lysates, 0.5×10^6 PA NC-1 cells were seeded in 100 mm dishes in 10 ml DMEM High glucose and 24 hours later, 5-FU (Sigma) or 19-S were added at the specified concentrations. Cells were harvested after 72 hours and cell pellets were stored at −80° C. For GI50 determination, 3000 MIA PaCa-2 cells. […] After 72 hours, cell viability was assessed by reduction of MTS ((3-4,5-dimethylthiazol-2-yl)-5-(3-carboxymethoxyphenol)-2-(4-sulfophenyl)-2H-tetrazolium) using Cell Titer 96 R Aqueous One Solution Cell Proliferation Assay Kit (Promega), following manufacturer's recommendations. Chemiluminescent output (integration time 1000 ms) was measured on a SpectraMax M3® (Molecular devices). Data were normalized to max/minutes and plotted in GraphPad Prism for GI50 determination. Chemical synthesis details, including characterization of each compound, can be found in the supporting information document associated with this publication.

**Q.** With `CCc1nc(N)nc(N)c1-c1ccc(N(C)Cc2ccccc2)c([N+](=O)[O-])c1` [Compound 19-S] as the molecule, how does the mortality ([1]; 50 mg/kg IP, n=3 (FIG. 10B)) read?
**A.** found dead after 12th, 13th and 14th dose

**Q.** What about the mortality ([1]; 50 mg/kg IP, n=3 (FIG. 10C)) of the same molecule?
**A.** 2 were found dead after 1st dose and one animal reached endpoint

**Q.** And the mortality ([1]; 100 mg/kg IP, n=2 (FIG. 10B))?
**A.** found dead after 1st and 3rd dose

**Q.** And the mortality ([1]; 100 mg/kg IP, n=3 (FIG. 10C))?
**A.** found dead after 1st dose

**Q.** What about the MTD at 3 treatment cycles of 5 consecutive daily doses ([1]; mouse, in vivo, IP, NSG mice, read-out: maximum tolerated dosage (MTD)) of the same molecule?
**A.** 25 mg/kg

**Q.** What about the “cytotoxicity (viability)” value [2] of the same molecule?
**A.** exhibited cytotoxicity in the 5 cell lines examined

**Q.** And the “body weight and behavior” value ([3]; 25 mg/kg IP, 3 cycles)?
**A.** did not show significant deviations in body weight or display adverse behavior

**Q.** And the “tumor progression (abdominal bioluminescence photon flux)” value ([3]; 25 mg/kg IP, 3 cycles, p=0.0032 vs vehicle)?
**A.** efficiently inhibited tumor progression

**Q.** And the body weight ([3]; 25 mg/kg oral gavage)?
**A.** no significant deviations in body weight

**Q.** What about the “dUMP conversion with increasing 5,10-mTHF concentration (drug displacement)” value (human TS; 5,10-mTHF up to 5×) of the same molecule?
**A.** increased the amount of dUMP conversion

**Q.** What about the “dUMP conversion with increasing dUMP concentration (drug displacement)” value (human TS; dUMP up to 5×) of the same molecule?
**A.** the amount of dUMP conversion did not increase

**Q.** What about the IC50 (BON cells) of the same molecule?
**A.** 120 nM

**Q.** And the GI50 (CM cells)?
**A.** 95 nM

**Q.** What about the GI50 (MIA PaCa-2 cells; MIA PaCa-2, 72-hour treatment, highest concentration 350 μM (FIG. 4E)) of the same molecule?
**A.** 200 to 840 nM

**Q.** What about the GI50 (MIA PaCa-2 cells; MIA PaCa-2, 72 hour drug incubation (FIG. 1C)) of the same molecule?
**A.** 1260 nM

Source: US20260258000A1, “THYMIDYLATE SYNTHASE INHIBITORS AND USES THEREOF” (University of Florida Research Foundation, Incorporated, priority 2021, published 2026)
